Measurements from US20210024545A1, “SUBSTITUTED DIAZAHETERO-BICYCLIC COMPOUNDS AND THEIR USE” (Bayer Aktiengesellschaft, priority 2016, published 2021).

How the values were obtained:
Assay type in all cases: cell-based
human TASK-1 [1] = target: T1, human TASK-1 (Homo sapiens, UniProt O14649); test: Two-electrode voltage clamp analysis of human TASK-1 channel in Xenopus laevis oocytes (B-1); design: expressed in transfected cells; host or cells: Xenopus laevis oocytes injected with cRNA; conditions: Xenopus laevis oocytes injected with TASK-1 cRNA, 21-22° C.
T1 sequence (O14649 whole entry): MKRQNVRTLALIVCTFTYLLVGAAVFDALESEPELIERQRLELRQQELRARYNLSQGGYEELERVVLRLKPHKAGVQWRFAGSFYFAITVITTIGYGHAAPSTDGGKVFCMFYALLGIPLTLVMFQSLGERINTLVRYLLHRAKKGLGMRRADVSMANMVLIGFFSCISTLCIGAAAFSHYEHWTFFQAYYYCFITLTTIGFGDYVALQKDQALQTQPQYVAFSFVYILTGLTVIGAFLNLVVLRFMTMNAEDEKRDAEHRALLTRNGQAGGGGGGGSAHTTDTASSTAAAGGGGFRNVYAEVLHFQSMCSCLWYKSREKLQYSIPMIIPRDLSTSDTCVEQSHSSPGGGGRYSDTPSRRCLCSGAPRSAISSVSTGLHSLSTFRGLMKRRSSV
Protocol: (§1) B-1. In Vitro Electrophysiological Analysis of the Human TASK-1 and TASK-3 Channels via Two-Electrode Voltage Clamp Technique in Xenopus laevis Oocytes
(§2) Xenopus laevis oocytes were selected as described elsewhere by way of illustration [Decher et al., FEBS Lett. 492, 84-89 (2001)]. Subsequently, the oocytes were injected with 0.5-5 ng of a cRNA solution coding for TASK-1 or TASK-3. For the electrophysiological analysis of the channel proteins expressed in the oocytes, the two-electrode voltage clamp technique [Stühmer, Methods Enzymol. 207, 319-339 (1992)] was used. The measurements were conducted as described [Decher et al., FEBS Lett. 492, 84-89 (2001)] at room temperature (21-22° C.) using a Turbo TEC 10CD amplifier (NPI), recorded at 2 kHz and filtered with 0.4 kHz. Substance administration was performed using a gravitation-driven perfusion system. Here, the oocyte is located in a measuring chamber and exposed to the solution stream of 10 ml/min The level in the measuring chamber is monitored and regulated by sucking off the solution using a peristaltic pump.

human TASK-1 [2] = target: T1, human TASK-1; test: Inhibition of recombinant TASK-1 in stably transfected CHO cells, KCl-induced depolarization, voltage-sensitive dye (B-2); design: expressed in transfected cells; host or cells: stably transfected CHO cells; conditions: depolarization induced by 40 mM potassium chloride, some mean values from multiple determinations
How it was run: (§3)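 Stably transfected CHO cells loaded with a voltage-sensitive membrane potential dye. Depolarization was induced with 40 mM KCl, and compound inhibition of it was read by fluorescence. IC50 is the concentration blocking half of the KCl-induced depolarization; some values are means of multiple independent determinations.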

human TASK-3 [3] = target: T2, human TASK-3 (Homo sapiens, UniProt Q9NPC2); test: Two-electrode voltage clamp analysis of human TASK-3 channel in Xenopus laevis oocytes (B-1); design: expressed in transfected cells; host or cells: Xenopus laevis oocytes injected with cRNA; conditions: Xenopus laevis oocytes injected with TASK-3 cRNA, 21-22° C.
T2 sequence (Q9NPC2 whole entry): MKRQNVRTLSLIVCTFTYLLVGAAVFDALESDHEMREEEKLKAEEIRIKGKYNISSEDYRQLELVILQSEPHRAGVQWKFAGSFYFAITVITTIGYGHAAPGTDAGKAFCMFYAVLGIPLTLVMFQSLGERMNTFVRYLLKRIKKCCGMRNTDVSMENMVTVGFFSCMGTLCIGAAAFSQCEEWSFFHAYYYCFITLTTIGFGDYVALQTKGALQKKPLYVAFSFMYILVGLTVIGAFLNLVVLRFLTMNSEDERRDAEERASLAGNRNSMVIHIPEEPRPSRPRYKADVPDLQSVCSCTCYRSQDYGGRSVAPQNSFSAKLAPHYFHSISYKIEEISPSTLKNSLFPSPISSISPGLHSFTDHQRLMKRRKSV
Protocol: as §1, §2

human TASK-1 [4] = target: T1, human TASK-1; test: Washout rate after binding to the human TASK-1 channel, two-electrode voltage clamp in Xenopus laevis oocytes (B-4); design: expressed in transfected cells; host or cells: Xenopus laevis oocytes injected with cRNA transcribed from the pSGEM vector; conditions: TASK-1 inhibited beforehand by about 40% at the concentration of Table 3 (30-80 nM); restoration of current recorded over at least one hour
Source text: The washout rate is defined as the washout of a compound according to the invention from the TASK-1 channel in % h^−1, measured by means of electrophysiological analysis on TASK-1-expressing Xenopus laevis oocytes via the two-electrode voltage clamp technique according to the description in section B-4.
B-4. In Vitro Electrophysiological Analysis of the Washout Rate of Compounds After Binding to the Human TASK-1 Channel via Two-Electrode Voltage Clamp Technique in Xenopus laevis Oocytes
Xenopus laevis oocytes were obtained from animals that had been anaesthetized with tricaine. Ovaries were treated with collagenase (1 mg/ml, Worthington, type II), stored in OR2 solution (82.5 mM NaCl, 2 mM KC1, 1 mM MgCl2, 5 mM HEPES; pH 7.4) for 120 min and then kept in the ND96 standard solution (96 mM NaCl, 2 mM KC1, 1.8 mM CaCl2, 1 mM MgCl2, 5 mM HEPES; pH 7.5) with additional sodium pyruvate (275 mg/l), theophylline (90 mg/1) and gentamicin (50 mg/1) at 18° C. hTASK-1 and hTASK-3 were subcloned into the pSGEM vector, and cRNA was produced after linearization with NHEI and in vitro transcription with T7 polymerase. Oocytes were injected individually with 5-20 ng of cRNA solution that encodes hTASK-1. Standard two-electrode voltage clamp recordings [Stühmer, Methods Enzymol. 207, 319-339 (1992)] were conducted at room temperature (21-22° C.) with a Turbo-TEC-10CD amplifier (NPI) as described above [Decher et al., FEBS Lett. 492, 84-89 (2001)]. The measurement interval was 2 kHz, and the data were filtered at 0.4 kHz. Substances were applied in a gravity-driven manner via the bath solution, using ND96. In summary, Xenopus laevis oocytes were selected as described above, injected with TASK-1 cRNA and subjected to an electrophysiological analysis via the two-electrode voltage clamp technique.
The TASK-1 channels were inhibited beforehand by a value of about 40% by administration of one of the compounds of the invention. The concentrations shown in Table 3 below were established here, which had been ascertained beforehand by determining the IC50 values in question. Subsequently, the restoration of the TASK-1-related membrane current was recorded in the voltage clamp over at least one hour. This restoration is caused by the washout of the compound in question from the TASK-1 channel
At least 6 oocytes were examined for every compound. The voltage clamp measurements took a total of at least 1.5 hours (administration of the inhibitor plus at least one subsequent hour of washout measurement).

human TASK-3 [5] = target: T2, human TASK-3; test: Inhibition of recombinant TASK-3 in stably transfected CHO cells, KCl-induced depolarization, voltage-sensitive dye (B-2); design: expressed in transfected cells; host or cells: stably transfected CHO cells; conditions: depolarization induced by 40 mM potassium chloride, some mean values from multiple determinations
How it was run: as §3

IC50 (human TASK-1 [1]) [nM] | IC50 (human TASK-1 [2]) [nM] | IC50 (human TASK-3 [3]) [nM] | Washout rate (human TASK-1 [4]) [% h^−1] | IC50 (human TASK-3 [5]) [nM] | SMILES
54 ± 16.1 | 690 | 12 ± 3.3 | 17 | 42 | COc1cccc(C(=O)N2CC3CCC2CN3Cc2c(-c3ccc(Cl)cn3)nc3ccccn23)n1 (single isomer, unassigned; enantiomer 1) [Example 26, (−)-(5-{[2-(5-Chloropyridin-2-yl)imidazo[1,2-a]pyridin-3-yl]methyl}-2,5-diazabicyclo[2.2.2]oct-2-yl)(6-methoxypyridin-2-yl)methanone (enantiomer 1)]
27.3 ± 5.4 | 240 | 16.3 ± 0.9 | 40 | 60 | COc1cccc(C(=O)N2C[C@@H]3CC[C@H]2CN3Cc2c(-c3ccc(Cl)cc3)nc3ccccn23)n1 (single isomer, unassigned; enantiomer 1) [Example 21]
